In US11078193B2 (priority 2014, dated 2021):

Key:
Format in all cases: cell-based
[1] = system: HBV; test: anti HBV activity, HepG2.117 inducibly HBV producing cell line (Tet-off), intracellular HBV DNA by realtime PCR; settings: Hepatitis B virus, 72 h, HepG2.117 cells, 3 days of treatment
[2] = system: HBV; test: anti-HBV activity, HepG2.2.15 stable transfected cell line, HBV DNA from secreted virions by realtime PCR; settings: Hepatitis B virus, 144 h, HepG2.2.15 cells, 6 days of treatment
[3] = Cytotoxicity, HepG2 cells, Resazurin assay; settings: human

Row | Compound | EC50 [1] [nM] | EC50 [2] [nM] | CC50 at 4 days [3] [nM]
1 | Cn1cc(S(=O)(=O)NC2(C)COC2)cc1C(=O)Nc1cc(C(F)(F)F)ccn1 [Compound 4, 1-Methyl-4-[(3-methyloxetan-3-yl)sulfamoyl]-N-[4-(trifluoromethyl)pyridin-2-yl]-1H-pyrrole-2-carboxamide] | 2340 | > 1000 | > 25000
2 | Cn1cc(S(=O)(=O)NC2(C)COC2)cc1C(=O)Nc1cccc(C(F)(F)F)n1 [Compound 5, 1-Methyl-4-[(3-methyloxetan-3-yl)sulfamoyl]-N-[6-(trifluoromethyl)pyridin-2-yl]-1H-pyrrole-2-carboxamide] | 3110 | 920 | > 25000
3 | Cn1cc(S(=O)(=O)NC(C)(C)C)c(Cl)c1C(=O)Nc1ccnc(C#N)c1 [Compound 6, 4-(tert-Butylsulfamoyl)-3-chloro-N-(2-cyanopyridin-4-yl)-1-methyl-1H-pyrrole-2-carboxamide] | 650 | 590 | > 25000
4 | C[C@@H](NS(=O)(=O)c1cn(C)c(C(=O)Nc2ccnc(C(F)(F)F)c2)c1Cl)C(F)(F)F [Compound 10, 3-Chloro-1-methyl-4-{[(1R)-2,2,2-trifluoro-1-methylethyl]sulfamoyl}-N-[2-(trifluoromethyl)pyridin-4-yl]-1H-pyrrole-2-carboxamide] | 160 | 70 | > 25000
5 | Cc1cc(NC(=O)c2c(Cl)c(S(=O)(=O)N[C@H](C)C(F)(F)F)cn2C)cnc1F [Compound 13, 3-Chloro-N-(6-fluoro-5-methylpyridin-3-yl)-1-methyl-4-{[(1R)-2,2,2-trifluoro-1-methylethyl]sulfamoyl}-1H-pyrrole-2-carboxamide] | 180 | 110 | > 25000
6 | C[C@H](NS(=O)(=O)c1cn(C)c(C(=O)Nc2ccnc(C#N)c2)c1F)C(F)(F)F [Compound 19, N-(2-Cyanopyridin-4-yl)-3-fluoro-1-methyl-4-{[(1S)-2,2,2-trifluoro-1-methylethyl]sulfamoyl}-1H-pyrrole-2-carboxamide] | 100 | 160 | > 25000
7 | C[C@@H](NS(=O)(=O)c1cn(C)c(C(=O)Nc2ccnc(C(F)(F)F)c2)c1F)C(F)(F)F [Compound 21, 3-fluoro-1-methyl-[[(1R)-2,2,2-trifluoro-1-methyl-ethyl]sulfamoyl]-N-[2-(trifluoromethyl)-4-pyridyl]pyrrole-2-carboxamide] | 30 | 40 | > 25000
8 | C[C@@H](NS(=O)(=O)c1cn(C)c(C(=O)Nc2cccc(C#N)n2)c1Cl)C(F)(F)F [Compound 22, 3-chloro-N-(6-cyano-2-pyridyl)-1-methyl-[[(1R)-2,2,2-trifluoro-1-methyl-ethyl]sulfamoyl]pyrrole-2-carboxamide] | 720 | 440 | > 25000
9 | C[C@@H](NS(=O)(=O)c1cn(C)c(C(=O)Nc2cccc(C#N)n2)c1F)C(F)(F)F [Compound 25, N-(6-cyano-2-pyridyl)-3-fluoro-1-methyl-4-[[(1R)-2,2,2-trifluoro-1-methyl-ethyl]sulfamoyl]pyrrole-2-carboxamide] | > 1000 | 190 | > 25000
10 | C[C@@H](NS(=O)(=O)c1cn(C)c(C(=O)Nc2cccc(C(F)(F)F)n2)c1F)C(F)(F)F [Compound 26, 3-fluoro-1-methyl-4-[[(1R)-2,2,2-trifluoro-1-methyl-ethyl]sulfamoyl]-N-[6-(trifluoromethyl)-2-pyridyl]pyrrole-2-carboxamide] | > 1000 | 110 | > 25000
11 | C[C@@H](NS(=O)(=O)c1cn(C)c(C(=O)Nc2ccc(F)cn2)c1F)C(F)(F)F [Compound 28, 3-fluoro-N-(5-fluoro-2-pyridyl)-1-methyl-4-[[(1R)-2,2,2-trifluoro-1-methyl-ethyl]sulfamoyl]pyrrole-2-carboxamide] | 700 | 360 | > 25000
12 | C[C@@H](NS(=O)(=O)c1cn(C)c(C(=O)Nc2cnc(F)c(Br)c2)c1F)C(F)(F)F [Compound 29, N-(5-bromo-6-fluoro-3-pyridyl)-3-fluoro-1-methyl-4-[[(1R)-2,2,2-trifluoro-1-methyl-ethyl]sulfamoyl]pyrrole-2-carboxamide] | 60 | 40 | > 25000
13 | C[C@@H](NS(=O)(=O)c1cn(C)c(C(=O)Nc2cc(F)nc(F)c2)c1F)C(F)(F)F [Compound 30, N-(2,6-difluoro-4-pyridyl)-3-fluoro-1-methyl-4-[[(1R)-2,2,2-trifluoro-1-methyl-ethyl]sulfamoyl]pyrrole-2-carboxamide] | 10 | < 100 | > 25000
14 | CC[C@@H](NS(=O)(=O)c1cn(C)c(C(=O)Nc2ccnc(C#N)c2)c1F)C(F)(F)F [Compound 31, N-(2-cyano-4-pyridyl)-3-fluoro-1-methyl-4-[[(1R)-1-(trifluoromethyl)propyl]-sulfamoyl]pyrrole-2-carboxamide] | 40 | 30 | > 25000
15 | C[C@@H](NS(=O)(=O)c1cn(C)c(C(=O)Nc2ccnc(Cl)c2F)c1Cl)C(F)(F)F [Compound 33, 3-chloro-N-(2-chloro-3-fluoro-4-pyridyl)-1-methyl-4-[[(1R)-2,2,2-trifluoro-1-methyl-ethyl]sulfamoyl]pyrrole-2-carboxamide] | 10 | 8 | > 25000
16 | C[C@@H](NS(=O)(=O)c1cn(C)c(C(=O)Nc2cnc(F)c(Br)c2)c1Cl)C(F)(F)F [Compound 34, N-(5-bromo-6-fluoro-3-pyridyl)-3-chloro-1-methyl-4-[[(1R)-2,2,2-trifluoro-1-methyl-ethyl]sulfamoyl]pyrrole-2-carboxamide] | 100 | 50 | > 25000
17 | C[C@@H](NS(=O)(=O)c1cn(C)c(C(=O)Nc2cc(F)nc(F)c2)c1Cl)C(F)(F)F [Compound 35, 3-chloro-N-(2,6-difluoro-4-pyridyl)-1-methyl-4-[[(1R)-2,2,2-trifluoro-1-methyl-ethyl]sulfamoyl]pyrrole-2-carboxamide] | 10 | 5 | > 25000
18 | CC[C@H](NS(=O)(=O)c1cn(C)c(C(=O)Nc2ccnc(C#N)c2)c1Cl)C(F)(F)F [Compound 37, 3-chloro-N-(2-cyano-4-pyridyl)-1-methyl-4-[[(1S)-1-(trifluoromethyl)-propyl]sulfamoyl]pyrrole-2-carboxamide] | 200 | 150 | > 25000
19 | CC[C@@H](NS(=O)(=O)c1cn(C)c(C(=O)Nc2ccnc(C#N)c2)c1Cl)C(F)(F)F [Compound 38, 3-chloro-N-(2-cyano-4-pyridyl)-1-methyl-4-[[(1R)-1-(trifluoromethyl)propyl]-sulfamoyl]pyrrole-2-carboxamide] | 50 | 40 | > 25000
20 | Cn1cc(S(=O)(=O)NC2(C(F)(F)F)CC2)c(Cl)c1C(=O)Nc1ccnc(C#N)c1 [Compound 39, 3-chloro-N-(2-cyano-4-pyridyl)-1-methyl-4-[[1-(trifluoromethyl)cyclopropyl]-sulfamoyl]pyrrole-2-carboxamide] | 90 | 90 | > 25000
